The text below walks through data of PubChem BioAssay (NCI).

Some test systems named below: M14 melanoma; T-47D breast; RPMI-8226 leukemia; EKVX NSCLC; A498 renal; MALME-3M melanoma; UACC-257 melanoma; SF-539 CNS; LOX IMVI melanoma; OVCAR-8 ovarian; ACHN renal; NCI/ADR-RES ovarian; BT-549 breast; MCF7 breast.
Assay in all cases: NCI-60 cell line screen, 48 h

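Results reflect a 48-hour exposure of cells in 96-well plates to compound at five concentrations. Definition used: TGI = concentration required for complete inhibition of growth.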

Consider `O=S(=O)(O)c1ccc(N=Nc2c(O)ccc3ccccc23)cc1`, for which the TGI with M14 melanoma, in the test on T-47D breast, with RPMI-8226 leukemia, with EKVX NSCLC, in the test with A498 renal and in the test with MALME-3M melanoma was greater than 100 µM throughout. The TGI in the test on UACC-257 melanoma, in the test with SF-539 CNS, in the test with LOX IMVI melanoma, with OVCAR-8 ovarian, in the test with ACHN renal and with NCI/ADR-RES ovarian was greater than 100 µM in each case. For the same molecule, the TGI in the test on BT-549 breast and in the test with MCF7 breast was greater than 100 µM throughout.

For `CN(C)c1ccc(/C=C(\NC(=O)c2ccccc2)c2nc3ccccc3c(=O)o2)cc1`, the TGI in the test on M14 melanoma, in the test on T-47D breast, with RPMI-8226 leukemia, with EKVX NSCLC, with A498 renal and in the test with MALME-3M melanoma was greater than 100 µM throughout. The TGI in the test with UACC-257 melanoma, with SF-539 CNS, in the test on LOX IMVI melanoma, with OVCAR-8 ovarian, with ACHN renal and in the test on NCI/ADR-RES ovarian was greater than 100 µM throughout. The TGI in the test with BT-549 breast and in the test with MCF7 breast was greater than 100 µM in each case.

With `Cc1nc2ccc(S(=O)(=O)Nc3ccccn3)cc2c(=O)n1NS(=O)(=O)c1ccccn1`, the TGI with M14 melanoma, in the test with T-47D breast, in the test with RPMI-8226 leukemia, in the test on EKVX NSCLC, with A498 renal and in the test on MALME-3M melanoma was greater than 100 µM in each case. Moreover, the TGI in the test with UACC-257 melanoma, with SF-539 CNS, in the test with LOX IMVI melanoma, with OVCAR-8 ovarian, in the test on ACHN renal and in the test with NCI/ADR-RES ovarian was greater than 100 µM throughout. Also, the TGI with BT-549 breast and with MCF7 breast was greater than 100 µM throughout.

For the molecule `CC1(C)C2CC1C(/C=N\OCC(=O)O)=CC2=O` (stereo not given), the TGI in the test on M14 melanoma, with T-47D breast, in the test on RPMI-8226 leukemia, with EKVX NSCLC, in the test with A498 renal and with MALME-3M melanoma was greater than 100 µM throughout. In addition, the TGI in the test with UACC-257 melanoma, with SF-539 CNS, with LOX IMVI melanoma, in the test with OVCAR-8 ovarian, in the test on ACHN renal and in the test on NCI/ADR-RES ovarian was greater than 100 µM each time. For the same molecule, the TGI in the test on BT-549 breast and in the test on MCF7 breast was greater than 100 µM in each case.

Consider `COc1cc(/C=C2\N=C(c3ccccc3)N(c3ccc(S(=O)(=O)Nc4nccs4)cc3)C2=O)ccc1O`, for which the TGI in the test on M14 melanoma, in the test with T-47D breast, in the test with RPMI-8226 leukemia, in the test with EKVX NSCLC, in the test with A498 renal and in the test with MALME-3M melanoma was greater than 100 µM throughout. The TGI with UACC-257 melanoma, in the test with SF-539 CNS, in the test with LOX IMVI melanoma, with OVCAR-8 ovarian, with ACHN renal and in the test on NCI/ADR-RES ovarian was greater than 100 µM throughout. For the same molecule, the TGI with BT-549 breast and in the test on MCF7 breast was greater than 100 µM in each case.

Turning to `N/C(=N\Nc1cccc(Cl)c1)c1cccnc1`, the TGI with M14 melanoma is 59.2 µM; in the test with T-47D breast it was greater than 92.6 µM; in the test with RPMI-8226 leukemia, greater than 89.9 µM; in the test with EKVX NSCLC it was greater than 100 µM; in the test with A498 renal, 87.4 µM; in the test on MALME-3M melanoma it was greater than 100 µM. The TGI was greater than 81.5 µM in the test with UACC-257 melanoma; greater than 60.8 µM in the test on SF-539 CNS; greater than 100 µM with LOX IMVI melanoma; greater than 100 µM with OVCAR-8 ovarian; greater than 100 µM in the test with ACHN renal; greater than 100 µM with NCI/ADR-RES ovarian. Moreover, the TGI in the test with BT-549 breast and with MCF7 breast was greater than 100 µM each time.

Consider `[N-]=[N+]=NC1(c2ccccc2)C(=O)c2cccc3c4ccccc4n(c23)C1=O` (stereo not given), for which the TGI in the test with M14 melanoma, with T-47D breast, in the test on RPMI-8226 leukemia, with EKVX NSCLC, in the test on A498 renal and in the test with MALME-3M melanoma was greater than 100 µM throughout. The TGI with UACC-257 melanoma, in the test with SF-539 CNS, with LOX IMVI melanoma, with OVCAR-8 ovarian, in the test with ACHN renal and with NCI/ADR-RES ovarian was greater than 100 µM throughout. For the same molecule, the TGI in the test on BT-549 breast and with MCF7 breast was greater than 100 µM each time.

Consider `O=C(c1c(F)c(F)c(F)c(F)c1F)n1c(=O)[nH]c2ccccc21`, for which the TGI turned out to be 22.1 µM in the test on M14 melanoma; 17.6 µM with T-47D breast; 25.1 µM in the test on RPMI-8226 leukemia; 29.3 µM in the test with EKVX NSCLC; 33.6 µM with A498 renal; 28.5 µM in the test with MALME-3M melanoma. For the same molecule, the TGI in the test on UACC-257 melanoma was determined as 19.7 µM; in the test on SF-539 CNS, 26.7 µM; with LOX IMVI melanoma it was 14.9 µM; in the test with OVCAR-8 ovarian, 27 µM; in the test on ACHN renal, 29.7 µM; with NCI/ADR-RES ovarian it was 58.1 µM. Besides, the TGI in the test on BT-549 breast was determined as 37.5 µM; in the test with MCF7 breast it was 16.8 µM.

Take `COC(=O)C1=C(C(=O)OC)C2(c3ccccc3)c3ccccc3C(=O)C1N2C1CCCCC1` (stereo not given): the TGI is greater than 100 µM with M14 melanoma; greater than 100 µM in the test on T-47D breast; 40.6 µM in the test on RPMI-8226 leukemia; greater than 100 µM in the test on EKVX NSCLC; greater than 100 µM with A498 renal; greater than 100 µM with MALME-3M melanoma. The TGI with UACC-257 melanoma, in the test on SF-539 CNS, in the test with LOX IMVI melanoma, in the test on OVCAR-8 ovarian, in the test on ACHN renal and in the test on NCI/ADR-RES ovarian was greater than 100 µM each time. Also, the TGI in the test with BT-549 breast and in the test with MCF7 breast was greater than 100 µM each time.

On to `CC(C)/C(Cl)=N/OC(NC(=O)Nc1ccc(Cl)c(Cl)c1)(C(F)(F)F)C(F)(F)F`, for which the TGI in the test on M14 melanoma is 18.3 µM; in the test with T-47D breast it was 19.4 µM; in the test on RPMI-8226 leukemia, 4.7 µM; with EKVX NSCLC, 38.1 µM; with A498 renal it was 34.7 µM; with MALME-3M melanoma it was 4.55 µM. Also, the TGI in the test with UACC-257 melanoma amounted to 25.9 µM; with SF-539 CNS it was 33.2 µM; in the test on LOX IMVI melanoma, 14.7 µM; with OVCAR-8 ovarian, 34.8 µM; in the test on ACHN renal, 24.9 µM; in the test with NCI/ADR-RES ovarian, 31.7 µM. In addition, the TGI in the test on BT-549 breast was 25.7 µM; in the test on MCF7 breast it was greater than 50.2 µM.
